Patent US6660752B2, “2,6-Substituted chroman derivatives useful as beta-3 adrenoreceptor agonists” (Bayer Pharmaceuticals Corporation, priority 2001, dated 2003)
Structures can show the parent of a compound that is named as a salt.

These molecules were tested against T1, human beta-3-adrenergic receptor (Homo sapiens, UniProt P13945) (assay: cAMP production (beta-3 agonist activity) in CHO cells stably expressing human beta-3-adrenergic receptor, cAMP SPA). Conditions: CHO cells expressing full-length human beta-3-adrenergic receptor, 30 min incubation, 10 μM to 3 nM, read-out: Beta-3 Agonistic Activity: Compounds with EC50 values ≦1 μM.
T1 construct: stably express full-length human beta-3-adrenergic receptor; expressed in transfected cells; host or cells: Chinese hamster ovary (CHO) cells
T1 sequence (P13945 whole entry): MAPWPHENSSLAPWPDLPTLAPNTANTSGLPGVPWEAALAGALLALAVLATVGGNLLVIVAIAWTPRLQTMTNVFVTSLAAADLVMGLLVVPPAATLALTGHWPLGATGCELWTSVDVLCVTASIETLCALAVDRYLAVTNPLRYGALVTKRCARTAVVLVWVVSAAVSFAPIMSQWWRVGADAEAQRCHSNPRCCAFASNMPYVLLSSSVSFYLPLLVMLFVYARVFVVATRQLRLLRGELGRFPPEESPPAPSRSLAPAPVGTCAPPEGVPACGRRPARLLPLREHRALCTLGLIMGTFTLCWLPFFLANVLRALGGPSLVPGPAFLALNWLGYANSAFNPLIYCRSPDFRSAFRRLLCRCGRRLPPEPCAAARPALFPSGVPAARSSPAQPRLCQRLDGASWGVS
Assay type: cell-based
Protocol: Chinese hamster ovary (CHO) cells that stably express full-length human beta-3-adrenergic receptor (Granneman et al., Mol. Pharmacol. 44:264-270, 1993) can be used in the following procedure. The cell line is grown in 90% F12 nutrient mixture (HAM), 10% fetal bovine serum, 100 units/ml penicillin G sodium, […] streptomycin sulfate, and 2 mM L-glutamine at 37° C. in 95% air and 5% CO2. The transfected cell line is maintained with G-418 (800 μg/ml).
To test the agonist activity, cells are exposed to test compound and then assayed for cAMP production. CHO cells (100 μl) are plated at 5×10^4 cells/well of a 96-well plate (Costar, Cambridge, Mass.) to achieve 70% confluency the next day. After overnight incubation at 37° C., media is removed and the cells are treated for 30 minutes at 37° C. with KRP buffer (120 mM NaCl, 5.1 mM KCl, 0.6 mM MgSO4.7H2O, 0.8 mM CaCl2.H2O, […] phosphate buffer, […] Hepes pH 7.4)+[…] IBMX ([…]), +1% DMSO, +/− test compounds ([…]). Test compounds are assayed from 10 μM to 3 nM with 3-fold serial dilutions. The control agonist, isoproterenol (10 mM stock in 1.1 mM ascorbate), is assayed by 3-fold dilution beginning at 1 μM. After a 30-minute incubation with the test compounds, the buffer/compound mixture is removed. The cells are lysed and cAMP levels are measured using the cAMP SPA screening assay system (Amersham, Arlington Heights, Ill.). The cAMP values are then plotted to determine the EC50 of each compound tested.

EC50, ≤ 1 µM:
CCOCC(=O)NS(=O)(=O)c1ccc(-c2ccc3c(c2)CC[C@H](CNC[C@H](O)c2cccnc2)O3)cc1 [Example 286, N-(ethoxyacetyl)-4-[(2R)-2-({[(2R)-2-hydroxy-2-(3-pyridinyl)ethyl]amino}methyl)-3,4-dihydro-2H-chromen-6-yl]benzenesulfonamide]
CC(C)(C)CC(=O)NS(=O)(=O)c1ccc(-c2ccc3c(c2)CC[C@H](CNC[C@H](O)c2cccnc2)O3)cc1 [Example 287, N-(3,3-dimethylbutanoyl)-4-[(2R)-2-({[(2R)-2-hydroxy-2-(3-pyridinyl)ethyl]amino}methyl)-3,4-dihydro-2H-chromen-6-yl]benzenesulfonamide]
O=C(NS(=O)(=O)c1ccc(-c2ccc3c(c2)CC[C@H](CNC[C@H](O)c2cccnc2)O3)cc1)C(C(F)(F)F)C(F)(F)F [Example 288]
CCC(CC)C(=O)NS(=O)(=O)c1ccc(-c2ccc3c(c2)CC[C@H](CNC[C@H](O)c2cccnc2)O3)cc1 [Example 289]
CC(C)C(=O)NS(=O)(=O)c1ccc(-c2ccc3c(c2)CC[C@H](CNC[C@H](O)c2cccnc2)O3)cc1 [Example 290]
COCC(=O)NS(=O)(=O)c1ccc(-c2ccc3c(c2)CC[C@H](CNC[C@H](O)c2cccnc2)O3)cc1 [Example 291]
CC(C)(C)C(=O)NS(=O)(=O)c1ccc(-c2ccc3c(c2)CC[C@H](CNC[C@H](O)c2cccnc2)O3)cc1 [Example 292, N-(2,2-dimethylpropanoyl)-4-[(2R)-2-({[(2R)-2-hydroxy-2-(3-pyridinyl)ethyl]amino}methyl)-3,4-dihydro-2H-chromen-6-yl]benzenesulfonamide]
COc1cccc(C(=O)NS(=O)(=O)c2ccc(-c3ccc4c(c3)CC[C@H](CNC[C@H](O)c3cccnc3)O4)cc2)c1 [Example 293, 4-[(2R)-2-({[(2R)-2-hydroxy-2-(3-pyridinyl)ethyl]amino}methyl)-3,4-dihydro-2H-chromen-6-yl]-N-(3-methoxybenzoyl)benzenesulfonamide]
O=C(NS(=O)(=O)c1ccc(-c2ccc3c(c2)CC[C@H](CNC[C@H](O)c2cccnc2)O3)cc1)c1ccccc1 [Example 294, N-benzoyl-4-[(2R)-2-({[(2R)-2-hydroxy-2-(3-pyridinyl)ethyl]amino}methyl)-3,4-dihydro-2H-chromen-6-yl]benzenesulfonamide]
O=C(NS(=O)(=O)c1ccc(-c2ccc3c(c2)CC[C@H](CNC[C@H](O)c2cccnc2)O3)cc1)c1ccc(F)cc1 [Example 295, N-(4-fluorobenzoyl)-4-[(2R)-2-({[(2R)-2-hydroxy-2-(3-pyridinyl)ethyl]amino}methyl)-3,4-dihydro-2H-chromen-6-yl]benzenesulfonamide]
Cc1ccc(C(=O)NS(=O)(=O)c2ccc(-c3ccc4c(c3)CC[C@H](CNC[C@H](O)c3cccnc3)O4)cc2)cc1 [Example 296]
Cc1cccc(C(=O)NS(=O)(=O)c2cccc(-c3ccc4c(c3)CC[C@H](CNC[C@H](O)c3cccnc3)O4)c2)c1 [Example 297]
COc1cccc(C(=O)NS(=O)(=O)c2cccc(-c3ccc4c(c3)CC[C@H](CNC[C@H](O)c3cccnc3)O4)c2)c1 [Example 298]
Cc1ccc(C(=O)NS(=O)(=O)c2cccc(-c3ccc4c(c3)CC[C@H](CNC[C@H](O)c3cccnc3)O4)c2)cc1 [Example 299]
COc1ccc(C(=O)NS(=O)(=O)c2ccc(-c3ccc4c(c3)CC[C@H](CNC[C@H](O)c3cccnc3)O4)cc2)cc1 [Example 300, 4-[(2R)-2-({[(2R)-2-hydroxy-2-(3-pyridinyl)ethyl]amino}methyl)-3,4-dihydro-2H-chromen-6-yl]-N-(4-methoxybenzoyl)benzenesulfonamide]
O=C(NS(=O)(=O)c1cccc(-c2ccc3c(c2)CCC(CNC[C@H](O)c2cccnc2)O3)c1)c1ccc(Cl)cc1 (some centres unmarked) [Example 301]
O=C(NS(=O)(=O)c1cccc(-c2ccc3c(c2)CC[C@H](CNC[C@H](O)c2cccnc2)O3)c1)c1cccc(Cl)c1 [Example 302]
COc1ccc(C(=O)NS(=O)(=O)c2cccc(-c3ccc4c(c3)CCC(CNC[C@H](O)c3cccnc3)O4)c2)cc1 (some centres unmarked) [Example 303]
CN(C)CC(=O)NS(=O)(=O)c1cccc(-c2ccc3c(c2)CC[C@H](CNC[C@H](O)c2cccnc2)O3)c1 [Example 304]
CCC(=O)NS(=O)(=O)c1cccc(-c2ccc3c(c2)CC[C@H](CNC[C@H](O)c2cccnc2)O3)c1 [Example 305]
O=C(CS(=O)(=O)c1ccccc1)c1ccc(-c2ccc3c(c2)CC[C@H](CNC[C@H](O)c2cccnc2)O3)cc1 [Example 308, 1-{4-[(2R)-2-({[(2R)-2-hydroxy-2-(3-pyridinyl)ethyl]amino}methyl)-3,4-dihydro-2H-chromen-6-yl]phenyl}-2-(phenylsulfonyl)ethanone Dihydrochloride]
Cc1ccc(S(=O)(=O)CC(=O)c2ccc(-c3ccc4c(c3)CC[C@H](CNC[C@H](O)c3cccnc3)O4)cc2)cc1 [Example 309]
CC1(O)C(=O)NN(c2cccc(-c3ccc4c(c3)CC[C@@H](CNC[C@H](O)c3cccnc3)O4)c2)C1=O (stereo partly drawn) [Example 314, 4-hydroxy-1-{3-[(2S)-2-({[(2R)-2-hydroxy-2-(3-pyridinyl)ethyl]amino}methyl)-3,4-dihydro-2H-chromen-6-yl]phenyl}-4-methyl-3,5-pyrazolidinedione Dihydrochloride]
Nc1ccc(-c2ccc3c(c2)CC[C@H](CNC[C@H](O)c2cccnc2)O3)nc1 [Example 317, (1R)-2-({[(2R)-6-(5-amino-2-pyridinyl)-3,4-dihydro-2H-chromen-2-yl]methyl}amino)-1-(3-pyridinyl)ethanol Tetrahydrochloride]
O=S(=O)(Nc1ccc(-c2ccc3c(c2)CC[C@H](CNC[C@H](O)c2cccnc2)O3)nc1)c1ccccc1 [Example 319, N-{6-[(2R)-2-({[(2R)-2-hydroxy-2-(3-pyridinyl)ethyl]amino}methyl)-3,4-dihydro-2H-chromen-6-yl]-3-pyridinyl}benzenesulfonamide Trihydrochloride]
O=S(=O)(Nc1ccc(-c2ccc3c(c2)CC[C@H](CNC[C@H](O)c2cccnc2)O3)nc1)c1ccc(Cl)cc1 [Example 320, 4-chloro-N-{6-[(2R)-2-({[(2R)-2-hydroxy-2-(3-pyridinyl)ethyl]amino}methyl)-3,4-dihydro-2H-chromen-6-yl]-3-pyridinyl}benzenesulfonamide]
CS(=O)(=O)Nc1ccc(-c2ccc3c(c2)CC[C@H](CNC[C@H](O)c2cccnc2)O3)nc1 [Example 321, N-{6-[(2R)-2-({[(2R)-2-hydroxy-2-(3-pyridinyl)ethyl]amino}methyl)-3,4-dihydro-2H-chromen-6-yl]-3-pyridinyl}methanesulfonamide]
O=C(Nc1ccc(-c2ccc3c(c2)CC[C@H](CNC[C@H](O)c2cccnc2)O3)nc1)c1ccccc1 [Example 322]
CC(=O)Nc1ccc(-c2ccc3c(c2)CC[C@H](CNC[C@H](O)c2cccnc2)O3)nc1 [Example 323]
Cc1ccc(NC(=O)NS(=O)(=O)c2cccc(-c3ccc4c(c3)CC[C@H](CNC[C@H](O)c3cccnc3)O4)c2)cc1 [Example 324, 3-((1R)-1-hydroxy-2-{[((2R)-6-{3-[({[(4-methylphenyl)amino]carbonyl}amino)sulfonyl]phenyl}-3,4-dihydro-2H-chromen-2-yl)methyl]amino}ethyl)pyridine Hydrochloride]
NS(=O)(=O)c1ccc(-c2ccc3c(c2)CC[C@H](CNC[C@H](O)c2cccnc2)O3)cc1 [Example 325, 4-[(2R)-2-({[(2R)-2-hydroxy-2-(3-pyridinyl)ethyl]amino}methyl)-3,4-dihydro-2H-chromen-6-yl]benzenesulfonamide]
Cc1ccc(NC(=O)NS(=O)(=O)c2ccc(-c3ccc4c(c3)CC[C@H](CNC[C@H](O)c3cccnc3)O4)cc2)cc1 [Example 326, 3-((1R)-1-hydroxy-2-{[((2R)-6-{4-[({[(4-methylphenyl)amino]carbonyl}amino)sulfonyl]phenyl}-3,4-dihydro-2H-chromen-2-yl)methyl]amino}ethyl)pyridine]
